From US4638005A, “Monoquaternized pyrazinium compounds and their use as electron carriers in photosynthetic processes” (The Coca-Cola Company, priority 1983, dated 1987)

How the values were obtained:
nitrogenase [1] = biological target: T1, nitrogenase (Azotobacter vinelandii, UniProt P00459); assay: Chloroplast-coupled reduction of acetylene to ethylene by nitrogenase (electron carrier bioassay of Benemann); type: biochemical; conditions: for ACTIVITY RELATIVE TO FERREDOXIN (%) / ACTIVITY (nmoles C2 H4 /mg protein/min): Table I; for ACTIVITY RELATIVE TO FERREDOXIN (%): acetylene reduction to ethylene; for ACTIVITY (nmoles C2 H4 /mg protein/min): illuminated spinach chloroplasts, synthetic carriers 2 mM, clostridial ferredoxin 0.2 mM; for ETHYLENE FORMATION % Ferredoxin Activity: Table III ranking; for % FERREDOXIN ACTIVITY: Table IV, acetylene reduction
T1 construct: the nitrogenase sample was prepared from a culture of Azotobacter vinelandii; endogenous in cells; host or cells: Azotobacter vinelandii culture; French press lysate, 10,000 x g supernatant (crude)
T1 sequence (P00459 2-290 limits assumed): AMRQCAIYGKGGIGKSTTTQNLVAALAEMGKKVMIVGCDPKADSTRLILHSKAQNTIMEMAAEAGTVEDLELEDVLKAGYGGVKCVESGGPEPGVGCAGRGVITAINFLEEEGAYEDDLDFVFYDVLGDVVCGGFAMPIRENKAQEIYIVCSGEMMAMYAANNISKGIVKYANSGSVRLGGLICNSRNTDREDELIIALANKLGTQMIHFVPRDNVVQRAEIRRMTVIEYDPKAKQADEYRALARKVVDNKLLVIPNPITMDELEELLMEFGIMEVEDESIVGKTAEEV
Protocol: The activity of the pyrazinium compounds as electron carriers in an illuminated photocouple process using isolated chloroplasts and the reductive enzyme catalyst nitrogenease has been determined using the bioassay of Benemann, et al., Proc. Natl. Acad. Sci. USA, 64, 1079(1969). In this method, the carrier activity is measured as a function of nitrogenase reduction of acetylene to ethylene, the rate of production of ethylene being the direct measurement.
(§1) For the bioassay, the nitrogenase sample was prepared from a culture of Azotobacter vinelandii grown to a cell density of about 1 g/l. The cells harvested by centrifugation were broken in a French press, cell debris spun off at 10,000 XG for 1 hr., and the supernatant containing 40 mg/ml protein was used in the bioassay experiments. […] chloroplasts from spinach leaves as described by Benemann were also used. The synthetic carriers were tested in aqueous solutions at concentrations of 2 mM, while the standard, clostridial ferredoxin, was used in 0.2 mM aqueous solution. The concentrations of carriers in the assay mixtures were chosen so as to guarantee carrier saturation conditions. Thus, the observed differences in rates of ethylene production from the substrate acetylene were assigned directly to variations in the efficiency of electron transfer from the illuminated chloroplast to the nitrogenase. The results obtained for acetylene reduction (nitrogen fixation) using the pyrazinium compounds of Examples 1 through 42 are summarized in Table I and are expressed as nmoles of ethylene produced per mg protein per minute.

[2] = Polarographic half-wave potential (first wave reduction); type: physicochemical; conditions: 0.1 M phosphate buffer pH 7.55, 25° C.
From the text: Sci., 65, 1471(1976). Therefore, it was of interest to measure polarographically the half-wave potentials of the several pyrazinium salts under consideration, to determine the possible effect of structure upon their redox potentials.

nitrogenase [3] = biological target: T1, nitrogenase; assay: Chloroplast-coupled evolution of hydrogen by nitrogenase in the absence of substrate; type: biochemical; conditions: Table II, hydrogen evolution; for ACTIVITY (nmoles H2 /mg protein/min): no nitrogen or acetylene, synthetic carriers 2 mM, ferredoxin 0.2 mM
Protocol: as §1
It has been recognized for sometime the connection existing between hydrogen metabolism and nitrogen fixation. […] When nitrogenase was purified extensively, as mentioned above, it became apparent that in addition to nitrogen, nitrogenase also catalyzed the reduction of protons. The evolution of hydrogen is particularly active in the absence of the normal substrates for nitrogenase (nitrogen, acetylene, cyanide, azide, etc.), and is dependent upon a strong reductant and adenosine triphosphate hydrolysis. Since hydrogen evolution is not inhibited by CO, but reduction of nitrogen and other substrates is, the reduction of protons presumably occurs at a site other than the site of nitrogen reduction, H. C. Winter, et. al., Ann Rev. Biochem, 45, 409 (1976). Accordingly, with the same bioassay system and with exclusion of nitrogen, and acetylene, the activity of the pyrazinium compounds to act as carriers for production of hydrogen has been determined.
The results of this study, which are summarized in Table II, indicate that the pyrazinium salts that mediate the reduction of acetylene with electrons from the photoexcited chloroplast, are also mediating the reduction of protons by the nitrogenase.

| SMILES | ACTIVITY RELATIVE TO FERREDOXIN (%) (nitrogenase [1]) | ACTIVITY (nmoles C2 H4 /mg protein/min) (nitrogenase [1]) | ETHYLENE FORMATION % Ferredoxin Activity (nitrogenase [1]) | % FERREDOXIN ACTIVITY (nitrogenase [1]) | E1/2 vs. SCE (mV) [2] | ACTIVITY RELATIVE TO FERREDOXIN (%) (nitrogenase [3]) | ACTIVITY (nmoles H2 /mg protein/min) (nitrogenase [3]) |
| --- | --- | --- | --- | --- | --- | --- | --- |
| C[n+]1ccnc(C(CC(O)CO)CC(O)CO)c1 (centres unmarked) [Compound 1700, 1-Methyl-3-[4-(1,2,6,7-tetrahydroxyheptyl)]pyrazinium iodide] | 33% | 4.5 nmoles C2 H4 /mg protein/min | 33% | 33% | -715 mV | 62% | 16.6 nmoles H2 /mg protein/min |
| Cc1c[n+](C)cc(CS(=O)(=O)[O-])n1 [Compound 3000] | 99% | 13.4 nmoles C2 H4 /mg protein/min | 99% | 99% | -738 mV | 124% | 33.1 nmoles H2 /mg protein/min |
| C[n+]1ccnc(CCC(N)=O)c1 [Compound 4000, 1-Methyl-3-(2-carboxamidoethyl)pyrazinium iodide] | 28% | 3.8 nmoles C2 H4 /mg protein/min | 28% | 28% | -685 mV | 36% | 9.5 nmoles H2 /mg protein/min |
| Cc1c[n+](C)ccn1 [Compound 4300] | 5% | 0.7 nmoles C2 H4 /mg protein/min | 5% | 5% | -696 mV | 14% | 3.7 nmoles H2 /mg protein/min |
| C[n+]1ccnc2ccccc21 [Compound 5200] | 0% | 0.0 nmoles C2 H4 /mg protein/min | 0% | 0% | -433 mV | 0% | 0.0 nmoles H2 /mg protein/min |
| CC(=O)NCCc1c[n+](C)ccn1.[I-] [Compound 3800, 1-Methyl-3-(2-acetamidoethyl)pyrazinium iodide] | 15% | 2.0 nmoles C2 H4 /mg protein/min | 15% | 15% | -681 mV | 22% | 5.8 nmoles H2 /mg protein/min |
| C[n+]1ccnc(CS(C)(=O)=O)c1 [Compound 4700] | 5% | 0.7 nmoles C2 H4 /mg protein/min | 5% | 5% | -611 mV | 5% | 1.4 nmoles H2 /mg protein/min |
| CCCCc1c[n+](C)ccn1 [Compound 5000] | 0% | 0.0 nmoles C2 H4 /mg protein/min | 0% | 0% | -676 mV | 0% | 0.0 nmoles H2 /mg protein/min |
| CC(O)c1c[n+](C)ccn1 (centres unmarked) [Compound 200, 1-Methyl-3-(1-hydroxyelhyl)pyrazinium iodide] | 17% | 2.3 nmoles C2 H4 /mg protein/min | 17% | 17% | -699 mV | 64% | 17.2 nmoles H2 /mg protein/min |

Next, values leading:

| ACTIVITY RELATIVE TO FERREDOXIN (%) (nitrogenase [1]) | ACTIVITY (nmoles C2 H4 /mg protein/min) (nitrogenase [1]) | ETHYLENE FORMATION % Ferredoxin Activity (nitrogenase [1]) | % FERREDOXIN ACTIVITY (nitrogenase [1]) | E1/2 vs. SCE (mV) [2] | ACTIVITY RELATIVE TO FERREDOXIN (%) (nitrogenase [3]) | ACTIVITY (nmoles H2 /mg protein/min) (nitrogenase [3]) | SMILES |
| --- | --- | --- | --- | --- | --- | --- | --- |
| 0% | 0.0 nmoles C2 H4 /mg protein/min | 0% | 0% | -390 mV | 0% | 0.0 nmoles H2 /mg protein/min | COC(=O)c1c[n+](C)ccn1 [Compound 4500] |
| 41% | 5.5 nmoles C2 H4 /mg protein/min | 41% | 41% | -683 mV | 86% | 22.9 nmoles H2 /mg protein/min | C[n+]1ccnc(CCC(O)CO)c1.[I-] (centres unmarked) [Compound 1500, 1-Methyl-3-(3,4-dihydroxybutyl)pyrazinium iodide] |
| 22% | 3.0 nmoles C2 H4 /mg protein/min | 22% | 22% | -685 mV | 26% | 6.9 nmoles H2 /mg protein/min | COC(=O)CCc1c[n+](C)ccn1.[I-] [Compound 3901, 1-methyl-3-(2-carbomethoxyethyl)pyrazinium iodide] |
| 64% | 8.7 nmoles C2 H4 /mg protein/min | 64% | 64% | -651 mV | 106% | 28.4 nmoles H2 /mg protein/min | Cc1c[n+](CCCS(=O)(=O)[O-])ccn1 [Compound 600] |
| 95% | 12.8 nmoles C2 H4 /mg protein/min | 95% | 95% | -710 mV | 73% | 19.5 nmoles H2 /mg protein/min | CCC(Cc1c[n+](C)ccn1)S(=O)(=O)[O-] (centres unmarked) [Compound 1000] |
